{
  "source": "patent EP2845588A1",
  "about": "“PIN1 inhibitors for use in the prevention and/or treatment of theileriosis, and related applications” (Centre National de la Recherche Scientifique (CNRS), priority 2013, dated 2015)",
  "key": {"[1]": {"tested_on": "parasite-infected cells (Theileria parva - TpMD409)", "assay": "Cell viability XTT assay, TpMD409", "type": "cell-based, bovine", "details": "72h", "description": "(§1) All infected bovine cell lines used in this study were previously described: TBL3 cells were derived from in vitro infection of the spontaneous bovine-B lymphosarcoma cell line, BL3, with Hissar stock of T.annulata. The TpMD409 lymphocyte cell line are infected with T. parva. The culture conditions of these cell lines were previously described by Moreau et al., 1999. Cells were cultured in RPMI 1640 (Gibco-BRL, Paisley, UK), supplemented with 10% heat-inactivated Fetal calf serum, 4mM L-Glutamine, 25mM HEPES, 10µM β-mercaptoethanol and 100µg/ml penicillin/streptomycin in a humidified 5%CO2 atmosphere at 37°C. HepG2, NIH/3T3 and MEF cells lines were cultured in DMEM (Gibco-BRL, Paisley, UK), supplemented with 10% heat-inactivated Fetal calf serum, 4mM L-Glutamine, 25 mM HEPES, 10µM β-mercaptoethanol and 100µg/ml penicillin/streptomycin in a humidified 5% CO2 atmosphere at 37°C. Cell numbers, as judged by Trypan Blue exclusion test, were determined by counting cells using a Countess automated cell counter (Invitrogen, CA, USA). The anti-parasite drug Buparvaquone (BW720c) was used at 200ng/ml for 72 hours. BW720c has no effect on growth of uninfected cells. […]"}, "TaPIN Mutant A53P": {"biological_target": "T1, TaPIN Mutant A53P (Theileria annulata, UniProt Q4UG71, A53P)", "T1 construct": "expressed in transfected cells; host or cells: TBL3 (T. annulata-infected bovine B cells), electroporated with pRev-HA-FLAG-TaPIN A53P-RIL2", "assay": "CyclinD1-Luciferase reporter assay, TaPIN Mutant A53P in TBL3 cells", "type": "cell-based, T. annulata", "details": "parasite-infected cells (TBL3)", "source_text": "After sequencing the TaPIN gene expressed in Buparvaquone-resistant infected cells, the Ala53Pro point mutation identified in said gene was introduced into the pRev-HA-FLAG-TaPIN WT-RIL2 plasmid using the set of primers of sequence SEQ ID NO:41 and SEQ ID NO:42 following a 3-step PCR protocol.\nBovine cells were transfected with the 5xHRE (Staller et al., 2003) or CyclinD1- (Wulf et al., 2001) Luciferase reporters, using electroporation (Neon kit, Invitrogen, CA, USA). Mouse cells were transfected using Lipofectamine 2000 (Invitrogen, CA, USA). Transfections efficiencies were normalized to Renilla activity by co-transfection of a pRL-TK Renilla reporter plasmid (Promega, Ref.: E6241). Luciferase assays were performed 36h post-transfection using the Dual-Luciferase Reporter Assay System (Promega, Ref: E1980) in a microplate luminometer. Relative luminescence was represented as the ratio Firefly/Renilla luminescence, compared with the corresponding empty vector control. The 5xHRE promoter-Luciferase construct was obtained from P Staller (Biotech Research & Innovation Centre, Copenhagen, […])."}, "[2]": {"tested_on": "TBL3 cells transiently expressing TaPIN Mutant A53P", "assay": "Proliferation of TBL3 cells transiently expressing TaPIN Mutant A53P", "type": "cell-based, bovine", "details": "transient expression of TaPIN Mutant A53P", "description": "as §1"}, "[3]": {"tested_on": "PKM2, HIF1α, Hexokinase II and PDK1 in TBL3 cells", "assay": "Immunoblot of PKM2, HIF1α, Hexokinase II and PDK1 in TBL3 cells", "type": "cell-based, bovine", "description": "Total proteins were extracted with Laemmli lysis, sonicated: 15 secs ON / 30 secs OFF for 5 min, resolved on 10.5% acrylamide/bis-acrylamide SDS-PAGE gels and transferred to nitrocellulose membranes (Thermo Fisher Scientific, MA, USA) in transfer buffer. Protein transfer was assessed by Ponceau-red staining. Membranes were blocked in Tris-buffered saline pH7.4 containing 0.1% Tween-20 and 5% milk for 1 h at room temperature. Incubations with primary antibodies were carried out at 4°C overnight using antibody dilutions as manufacturer recommendations in Trisbuffered saline pH7.4, 0.05% Tween-20 and 5% milk. Following 1 h incubation with an anti-rabbit or anti-mouse peroxidase-conjugated antibody (Sigma, St Louis, MO, USA) at room temperature, proteins were detected by chemiluminescence (Thermo Fisher Scientific, MA, USA) following the manufacturer's instructions. The following antibodies were used: Rabbit anti-TaPIN (Home-made antibody, Proteogenix, Peptide used: […]-Cys), rabbit anti-PIN1 (Cell Signaling, Ref: 3722), rabbit anti-TaActin (kindly provided by Jake Baum, Australia), rabbit anti-c-Jun (Santa Cruz, CA, USA Ref: sc1694), mouse anti-αTubulin (Sigma, Ref: T9026), , rabbit anti-HIF1α (Abcam, Cambridge, UK; Ref: ab75918), rabbit anti-Hexokinase II (Cell Signaling, Ref: C64G5), rabbit anti-PDK1 (Cell signaling, Ref: C47H1), mouse anti-HA (Roche, Ref: 11583816001), rabbit anti-FBW7 (Bethyl Laboratories, Ref: A301-721A), rabbit anti-Histone H3 (Abcam, Ref: ab1791), rabbit anti-PKM2 (Abcam, Ref: ab38237), mouse anti-Actin (Sigma, Ref: A1978) and monoclonal anti-FLAG M2-Peroxidase (Sigma, Ref: A8592). c-Jun, FBW7 or PKM2/Actin ratios were calculated after Western blot signal quantification with the Plot Lanes Analysis tool of Image J software (National Institutes of Health, Bethesda, MD, USA)."}, "host bovine bPIN1": {"tested_on": "host bovine bPIN1", "assay": "Quantitative PCR of host bPIN1 transcripts", "type": "cell-based", "description": "Total cellular RNAs were extracted using an RNeasy Plus Mini Kit (Qiagen, Hilden, Germany) and parasite RNAs were extracted using the classical Trizol Protocol. cDNA synthesis was performed with the Reverse Transcriptase Superscript III (Invitrogen, CA, USA).\nQuantitative PCR amplification was performed in the ABI 7500 machine (Applied Biosystems, CA, USA) using the Sybr Green reagent (Applied Biosystems, CA, USA) using the primers listed in Table 5 below. The detection of a single product was verified by dissociation curve analysis. Relative quantities of mRNA were analyzed using the delta Ct method. The βactin qPCR was used for normalization. Table 5: qPCR primers"}, "TpPIN protein": {"tested_on": "TpPIN protein", "assay": "Immunoblot of TpPIN protein in nuclear and cytoplasmic fractions of T. parva-infected cells", "type": "cell-based", "details": "nuclear and cytoplasmic fractions of T. parva-infected TpM409 B cells", "description": "Cells were lysed in the following buffer: 5mM Tris HCL pH7.5, 40mM KCL, 2mM MgCL2, 0.5mM EDTA, 0.05mM Spermidine and Spermine, 0.1% NP-40, H2O. Lysates were incubated for 5min on ice and centrifuged for 10min at 5000rpm. The supernatant constitutes the Cytoplasmic fraction and the pellet constitutes the nuclear fraction.\nTotal proteins were extracted with Laemmli lysis, sonicated: 15 secs ON / 30 secs OFF for 5 min, resolved on 10.5% acrylamide/bis-acrylamide SDS-PAGE gels and transferred to nitrocellulose membranes (Thermo Fisher Scientific, MA, USA) in transfer buffer. Protein transfer was assessed by Ponceau-red staining. Membranes were blocked in Tris-buffered saline pH7.4 containing 0.1% Tween-20 and 5% milk for 1 h at room temperature. Incubations with primary antibodies were carried out at 4°C overnight using antibody dilutions as manufacturer recommendations in Trisbuffered saline pH7.4, 0.05% Tween-20 and 5% milk. Following 1 h incubation with an anti-rabbit or anti-mouse peroxidase-conjugated antibody (Sigma, St Louis, MO, USA) at room temperature, proteins were detected by chemiluminescence (Thermo Fisher Scientific, MA, USA) following the manufacturer's instructions. […]"}, "HepG2 cells": {"tested_on": "HepG2 cells", "assay": "Cell viability XTT assay, HepG2", "type": "cell-based, human", "details": "72h", "description": "All infected bovine cell lines used in this study were previously described: TBL3 cells were derived from in vitro infection of the spontaneous bovine-B lymphosarcoma cell line, BL3, with Hissar stock of T.annulata. The TpMD409 lymphocyte cell line are infected with T. parva. The culture conditions of these cell lines were previously described by Moreau et al., 1999. Cells were cultured in RPMI 1640 (Gibco-BRL, Paisley, UK), supplemented with 10% heat-inactivated Fetal calf serum, 4mM L-Glutamine, 25mM HEPES, 10µM β-mercaptoethanol and 100µg/ml penicillin/streptomycin in a humidified 5%CO2 atmosphere at 37°C. HepG2, NIH/3T3 and MEF cells lines were cultured in DMEM (Gibco-BRL, Paisley, UK), supplemented with 10% heat-inactivated Fetal calf serum, 4mM L-Glutamine, 25 mM HEPES, 10µM β-mercaptoethanol and 100µg/ml penicillin/streptomycin in a humidified 5% CO2 atmosphere at 37°C. Cell numbers, as judged by Trypan Blue exclusion test, were determined by counting cells using a Countess automated cell counter (Invitrogen, CA, USA). The anti-parasite drug Buparvaquone (BW720c) was used at 200ng/ml for 72 hours. BW720c has no effect on growth of uninfected cells.\n1×10^4 cells were plated in 96-well plates in triplicate and Buparvaquone, Juglone or PiB was added. […]"}},
  "data": [
    {"compound": "CC(C)(C)C1CCC(CC2=C(O)C(=O)c3ccccc3C2=O)CC1", "note": "(stereo not shown) [Buparvaquone, 2-((4-tert-butylcyclohexyl)methyl)-3-hydroxy-1,4-naphthoquinone]", "values": [
      {"measurement": "viability of parasite-infected cells", "setting": "[1]", "result": "decreased the viability"},
      {"measurement": "CyclinD1 promoter activation induced by the TaPIN Mutant A53P", "setting": "TaPIN Mutant A53P", "result": "no significant effect"},
      {"measurement": "drug effect on TBL3 cell proliferation on overexpression of the TaPIN Mutant A53P", "setting": "[2]", "result": "rescued"},
      {"measurement": "HIF1α protein expression", "setting": "[3]", "result": "reduced"},
      {"measurement": "PKM2 protein expression", "setting": "[3]", "result": "reduced"},
      {"measurement": "Hexokinase II", "setting": "[3]; HIF1α target gene", "result": "reduced"},
      {"measurement": "PDK1", "setting": "[3]; HIF1α target gene", "result": "reduced"},
      {"measurement": "level of RNA transcripts encoding the host bovine bPIN1 protein", "setting": "host bovine bPIN1", "result": "not affected"},
      {"measurement": "TpPIN protein", "setting": "TpPIN protein", "result": "decreased"},
      {"measurement": "viability of HepG2 cells", "setting": "HepG2 cells", "result": "reduce the viability"}
    ]}
  ]
}
